pIC50: −log10 of the molar value.
Legend:
[1] = biological target: T1, recombinant METTL3/METTL14 complex (Homo sapiens, UniProt Q86U44); assay: METTL3/14 Scintillation Proximity Assay (SPA), RNA methyltransferase activity; assay type: biochemical; conditions: 5.31 nM METTL3/14 complex, 250 nM RNA substrate, 1 μM 3H-SAM, 90 min; for compounds marked * best of the two separated forms
T1 construct: purchased Active Motif 311970; host or cells: Sf9 cells

[2] = system: Kasumi-1 cells; assay: Kasumi-1 cellular viability assay (ATP-Lite, 72 h); assay type: cell-based; conditions: Homo sapiens, ATP-Lite luminescence, % viability relative to DMSO
Method in brief: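 Viability was read by ATP-Lite One Step luminescence after 72 h compound treatment at 37 °C/5% CO2, normalised to DMSO control, with IC50 fitted from concentration-response. Cells were Kasumi-1 (AML FAB M2) at 15000 per well in RPMI-1640/10% FBS, 0.1% DMSO final.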

[3] = system: Caov-3 cells; assay: Caov-3 cellular viability assay (ATP-Lite, 72 h); assay type: cell-based; conditions: Homo sapiens, ATP-Lite luminescence, % viability relative to DMSO
Method in brief: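 IC50 values come from concentration-response fits of luminescent ATP content (ATP-Lite One Step), normalised as % viability versus DMSO. Compound exposure was 72 h at 37 °C in RPMI-1640/10% FBS with 0.1% final DMSO. Wells held 10000 cells each.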

T1 sequence (Q86U44 whole entry): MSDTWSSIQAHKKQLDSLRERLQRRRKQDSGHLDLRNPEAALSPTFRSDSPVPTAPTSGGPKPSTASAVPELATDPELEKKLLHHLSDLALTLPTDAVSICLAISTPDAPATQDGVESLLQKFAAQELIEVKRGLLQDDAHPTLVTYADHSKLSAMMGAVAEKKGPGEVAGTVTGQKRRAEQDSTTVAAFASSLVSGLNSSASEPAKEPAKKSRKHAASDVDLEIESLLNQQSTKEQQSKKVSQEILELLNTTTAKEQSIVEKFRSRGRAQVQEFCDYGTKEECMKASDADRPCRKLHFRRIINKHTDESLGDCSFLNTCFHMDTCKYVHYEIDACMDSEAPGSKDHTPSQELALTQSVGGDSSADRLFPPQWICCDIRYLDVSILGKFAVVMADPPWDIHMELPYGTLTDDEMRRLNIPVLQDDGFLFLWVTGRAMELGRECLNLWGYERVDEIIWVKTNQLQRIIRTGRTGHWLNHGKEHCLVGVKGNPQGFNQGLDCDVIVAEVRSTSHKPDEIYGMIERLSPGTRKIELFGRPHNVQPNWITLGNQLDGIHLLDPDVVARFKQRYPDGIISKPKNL
T1 sequence (Q9HCE5 whole entry partner): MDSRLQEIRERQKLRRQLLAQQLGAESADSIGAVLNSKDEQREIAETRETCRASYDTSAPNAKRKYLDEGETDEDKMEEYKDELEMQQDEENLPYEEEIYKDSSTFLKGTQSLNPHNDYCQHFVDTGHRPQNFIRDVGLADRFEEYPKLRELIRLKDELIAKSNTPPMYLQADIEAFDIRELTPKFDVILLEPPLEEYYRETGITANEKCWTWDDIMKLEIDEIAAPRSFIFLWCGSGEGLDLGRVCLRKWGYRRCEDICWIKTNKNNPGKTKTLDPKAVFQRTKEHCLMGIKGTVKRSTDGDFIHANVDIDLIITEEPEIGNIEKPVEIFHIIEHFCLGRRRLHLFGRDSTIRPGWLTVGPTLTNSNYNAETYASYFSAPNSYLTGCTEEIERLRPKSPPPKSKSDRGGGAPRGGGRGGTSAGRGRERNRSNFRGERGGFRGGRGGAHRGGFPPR

pIC50 [1]	SMILES	pIC50 [2]	pIC50 [3]
≥ 7.30	COc1cncc(-c2cn(C(C)n3ccc(N4CCC[C@@H](NCC5CCC5)C4)c(F)c3=O)nn2)c1 (stereo partly drawn) [Compound 126, 4-((R)-3-((cyclobutylmethyl)amino)piperidin-1-yl)-3-fluoro-1-(1-(4-(5-methoxypyridin-3-yl)-1H-1,2,3-triazol-1-yl)ethyl)pyridin-2(1H)-one]	< 5.30	5.30 to 6.30
≥ 7.30	O=C(Nc1cc(=O)n2ccccc2n1)C1(c2ccc(N3CCC[C@@H](NCC4CC(F)(F)C4)C3)cn2)COC1 [Compound 338, (R)-3-(5-(3-(((3,3-difluorocyclobutyl)methyl)amino)piperidin-1-yl)pyridin-2-yl)-N-(4-oxo-4H-pyrido[1,2-a]pyrimidin-2-yl)oxetane-3-carboxamide]	≥ 6.30	≥ 6.30
≥ 7.30	COc1cncc(-c2cn(C(C)(C)c3ccc(N4CCC[C@@H](NCC5CCC5)C4)nn3)nn2)c1 [Compound 082, (R)-N-(cyclobutylmethyl)-1-(6-(2-(4-(5-methoxypyridin-3-yl)-1H-1,2,3-triazol-1-yl)propan-2-yl)pyridazin-3-yl)piperidin-3-amine]	5.30 to 6.30	5.30 to 6.30
≥ 7.30	COc1cc(-c2cn(Cc3ccc(N4CCC[C@@H](NCC(C)C)C4)nn3)nn2)c2cn[nH]c2c1 [Compound 031, (R)-N-isobutyl-1-(6-((4-(6-methoxy-1H-indazol-4-yl)-1H-1,2,3-triazol-1-yl)methyl)pyridazin-3-yl)piperidin-3-amine]	5.30 to 6.30	5.30 to 6.30
≥ 7.30	COc1cc(-c2cn(Cc3ccc(N4CCC[C@@H](NCC5CCC5)C4)nn3)nn2)c2cncn2c1 [Compound 013, (R)-N-(cyclobutylmethyl)-1-(6-((4-(6-methoxyimidazo[1,5-a]pyridin-8-yl)-1H-1,2,3-triazol-1-yl)methyl)pyridazin-3-yl)piperidin-3-amine]	5.30 to 6.30	≥ 6.30
≥ 7.30	CC(c1cnn(-c2cncc(N(C)C)c2)c1)n1ccc(N2CCC[C@@H](NCC3CCC3)C2)cc1=O (mixture of isomers) [Compound 156, 4-((R)-3-((cyclobutylmethyl)amino)piperidin-1-yl)-1-(1-(1-(5-(dimethylamino)pyridin-3-yl)-1H-pyrazol-4-yl)ethyl)pyridin-2(1H)-one]	≥ 6.30	≥ 6.30
≥ 7.30	CC(c1ccc(N2CCC[C@@H](NCC3CCC3)C2)cn1)c1cnc(-c2cncc(N(C)C)c2)s1 (single isomer, unassigned) [Compound 169]	≥ 6.30	≥ 6.30
≥ 7.30	COc1cc(-c2cn(Cc3ccc(N4CCCC(N5CCC(C)CC5)C4)nn3)nn2)c2cn[nH]c2c1 (stereo not drawn) [Compound 007, 6-methoxy-4-(1-((6-(4-methyl-[1,3′-bipiperidin]-1′-yl)pyridazin-3-yl)methyl)-1H-1,2,3-triazol-4-yl)-1H-indazole]	5.30 to 6.30	5.30 to 6.30
≥ 7.30	CC(c1ncc(N2CCC[C@@H](NCC3CCC3)C2)cc1F)n1cc(-c2cncc(N3CCCC3)n2)nn1 (single isomer, unassigned) [Compound 303]	≥ 6.30	≥ 6.30
≥ 7.30	COc1cncc(-c2ncn(C(C)n3ccc(N4CCC[C@@H](NCC5CCC5)C4)cc3=O)n2)c1 (single isomer, unassigned) [Compound 135]	5.30 to 6.30	5.30 to 6.30
≥ 7.30	CC(n1cc(-c2cncc(N3CC4(CCC4)C3)c2)nn1)n1ccc(N2CCC[C@@H](NCC3CCC3)C2)cc1=O (single isomer, unassigned) [Compound 193]	≥ 6.30	≥ 6.30
≥ 7.30	c1cc(C2(n3cnc(-c4cncc(N5CCCC5)n4)c3)COC2)ncc1N1CCC[C@@H](NCC2CC2)C1 [Compound 250, (R)-N-(cyclopropylmethyl)-1-(6-(3-(4-(6-(pyrrolidin-1-yl)pyrazin-2-yl)-1H-imidazol-1-yl)oxetan-3-yl)pyridin-3-yl)piperidin-3-amine]	≥ 6.30	≥ 6.30
≥ 7.30	CC(c1cnn(-c2cncc(N3CCCC3)n2)c1)c1ccc(N2CCC[C@@H](NCC3CC3)C2)cn1 (single isomer, unassigned) [Compound 354]	≥ 6.30	≥ 6.30

— patent publication US20250002475A1 (EPICS THERAPEUTICS, priority 2023, published 2025)
